Measured values published in PMC4746387, “A Bioactivity-Based Method for Screening, Identification of Lipase Inhibitors, and Clarifying the Effects of Processing Time on Lipase Inhibitory Activity of Polygonum Multiflorum” (Evidence-based Complementary and Alternative Medicine : eCAM, 2016).
Where two headings read alike, the source gives them in different places.

Key:
[1] = biological target: T1, lipase (Sus scrofa, UniProt P00591); assay: Lipase inhibitory activity of enriched UHPLC fractions of P. multiflorum extract and their contribution to total activity (orlistat potency units); assay type: biochemical; settings: for lipase inhibitory effect of fractions of peaks: fractions of P. multiflorum extract enriched for 40 and 60 times, Figure 1; for contribution to the total lipase inhibitory activity: potency of individual fraction/total lipase inhibitory × 100%, orlistat equivalent potency units
T1 construct: purchased Solar Bio Science Co. Ltd. (Beijing, China) L3126
T1 sequence (P00591 1-450): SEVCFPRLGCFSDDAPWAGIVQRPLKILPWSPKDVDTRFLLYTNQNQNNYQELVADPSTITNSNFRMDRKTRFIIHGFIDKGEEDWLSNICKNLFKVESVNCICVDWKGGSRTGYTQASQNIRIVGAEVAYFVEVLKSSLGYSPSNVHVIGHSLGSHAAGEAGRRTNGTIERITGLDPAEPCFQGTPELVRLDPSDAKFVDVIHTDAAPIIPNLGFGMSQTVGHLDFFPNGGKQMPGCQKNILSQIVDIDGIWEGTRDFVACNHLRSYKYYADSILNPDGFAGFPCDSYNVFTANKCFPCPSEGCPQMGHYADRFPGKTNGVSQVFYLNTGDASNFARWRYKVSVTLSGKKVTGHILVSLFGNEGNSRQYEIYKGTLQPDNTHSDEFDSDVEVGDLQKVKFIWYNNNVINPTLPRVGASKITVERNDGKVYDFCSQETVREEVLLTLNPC
Experimental: When the P. multiflorum extract was injected into the UHPLC system, the fraction collector (BSZ-100, Shanghai QingpuHuxi Instrument, Shanghai, China) was used for the fraction collection by setting the time interval at 20 s. Then, the fractions were collected and evaporated to dryness by nitrogen gas. The residues were reconstituted and diluted for bioassays.
(§1) The assay of lipase was performed according to previous method with slight modifications. 25 μL test samples and 25 μL lipase solution were mixed together. Then, 50 μL 4-methylumbelliferyl oleate was added to the mixture. After incubating at 25°C for 20 min, 100 μL sodium citrate (0.1 M, pH 4.2) was added to stop the reaction. Finally, the amount of 4-methylumbelliferone released by lipase was measured by microplate reader at an excitation wavelength of 355 nm and an emission wavelength of 460 nm. The inhibitory activity was calculated by the formula: inhibition (%) = [1 − (A sample/A control)] × 100, where A sample and A control were absorbance of the test sample and the control, respectively.
The extract was injected in UHPLC for the separation of the components and all fractions were collected for the bioassays. The lipase inhibitory effect was expressed as inhibition ratio (%), which could be calculated by the above mentioned formula. The time interval of fraction collector was set at 20 s according to the resolution and peak shape in the chromatogram. […] The fractions from the same peak were combined.
The potency calibration curve was constructed by plotting the potency (y) against the corresponding inhibition ratio (x). […] Then, the potency of the enriched fractions was determined by the curve mentioned above. […] The contribution of individual fractions was calculated by the formula: contribution (%) = potency of individual fraction/the total lipase inhibitory × 100%.

[2] = biological target: T1, lipase; assay: Assay for lipase inhibitory activity (4-methylumbelliferyl oleate substrate, fluorescence of 4-methylumbelliferone); assay type: biochemical; settings: for lipase inhibition ratio: at the concentration of 1.0 mg/mL; for IC50: reference standards (purity > 98%), eight diluted concentrations, 25°C, 20 min
Experimental: 4-Methylumbelliferyl oleate (4.406 mg) was accurately weighed and dissolved by Tris-HCl solution (pH 8.0, 1.3 mM NaCl, and 1.3 mM CaCl2) with the final concentration of 0.1 mM. 100 mg lipase was dissolved with deionized water and the insoluble substances were removed by centrifugation at 14,000 rpm for 10 min. Finally, the concentration of enzyme solution was 1.0 mg/mL.
Gallic acid, catechin, epicatechin, polydatin, 2,3,5,4′-tetrahydroxystilbene-2-O-β-D-glucoside, resveratrol, emodin-8-O-glucoside, physcion-8-O-glucoside, rhein, emodin, and physcion with the concentration of 1.0 mg/mL were prepared in methanol for quality control. Rhein, emodin, and physcion were dissolved in DMSO (Dimethyl Sulfoxide) with suitable concentrations. The reference standards solution was diluted serially with 10% methanol for the bioassays. The concentrations of DMSO in a series of samples at different concentrations were less than 0.1% (v/v). […] It was prepared with 10% methanol and diluted to a series of different concentrations.
as §1
In the bioassay experiments, all the analysis was carried out in triplicate. All values were expressed in the form of mean ± standard deviation (SD); IC50 values were determined by Graph Pad Prism 5 software.

[3] = read-out: IC50 (μg/mL) (converted)

SMILES	lipase inhibitory effect of fractions of peaks [1]	lipase inhibition ratio [2] [%]	IC50 [2, 3] [µM]	contribution to the total lipase inhibitory activity [1]	IC50 [2] [µg/mL]
Oc1cc(O)c2c(c1)O[C@H](c1ccc(O)c(O)c1)[C@H](O)C2 [Epicatechin]	relatively weak inhibitory effect	≤ 50	–	–	–
O.Oc1cc(O)c2c(c1)O[C@H](c1ccc(O)c(O)c1)[C@@H](O)C2 [Catechin]	relatively weak inhibitory effect	≤ 50	–	–	–
Oc1ccc(/C=C/c2cc(O)cc(O)c2)cc1 [Resveratrol]	strong inhibition	–	2470	–	–
O=C(O)c1cc(O)c2c(c1)C(=O)c1cccc(O)c1C2=O [Rhein]	strong inhibition	–	813	–	–
Cc1cc(O[C@@H]2O[C@H](CO)[C@@H](O)[C@H](O)[C@H]2O)c2c(c1)C(=O)c1cc(O)cc(O)c1C2=O [Emodin-8-O-glucoside]	strong inhibition	–	–	less than 10%	296.0
COc1cc(O)c2c(c1)C(=O)c1cc(C)cc(OC3OC(CO)C(O)C(O)C3O)c1C2=O (stereo not shown) [Physcion-8-O-glucoside]	strong inhibition	–	–	–	421.5
OC[C@H]1O[C@@H](Oc2cc(O)cc(/C=C/c3ccc(O)cc3)c2)[C@H](O)[C@@H](O)[C@@H]1O [Polydatin]	relatively weak inhibitory effect	–	–	–	–
O=C(O)c1cc(O)c(O)c(O)c1 [Gallic acid]	relatively weak inhibitory effect	≤ 50	–	–	–
Cc1cc(O)c2c(c1)C(=O)c1cc(O)cc(O)c1C2=O [Emodin]	strong inhibition	–	1290	less than 10%	–
COc1cc(O)c2c(c1)C(=O)c1cc(C)cc(O)c1C2=O [Physcion]	strong inhibition	–	2860	less than 10%	–
